Tested on: FDCP-Mix cells
Experiment: in vitro chemotactic assay of FDCP-Mix cells in 96-transwell chambers
Format: cell-based
Settings: migration for 14 h
Procedure: Figure: FDCP-Mix cells were subjected to in vitro chemotactic assays. Chemotaxis was assessed in 96-transwell chambers (Neuroprobe, Cabin John, MD) by using polyvinylpyrrolidone-free polycarbonate membranes (Nucleopore, Neuroprobe) with 5-μm pores. Four hundred microliters of IMDM medium was added to the bottom of the well, and was supplemented with varying concentrations of SDF-1α or MIP-3α (R&D Systems). 100 μl of IMDM medium containing 50.000 FDCP-Mix cells were added to the upper wells of the chemotaxis chamber. Additionally 100 μl of medium either with no supplement or supplemented with MIP-3α was added to the upper well. […] Simultaneously FDCP-Mix progenitor cells were coincubated with MIP-3α in concentrations of 10 to 1000 ng/ml medium.

MIP-3α: Macrophage Inflammatory Protein - 3α, CCR6 ligand (R&D Systems)
Chemotactic migration of FDCP-Mix progenitor cells (MIP-3a in the bottom well, 10 to 1000 ng/ml medium): does not induce chemotactic migration | Sensitivity of FDCP-Mix cells to migrate to SDF-1α (SDF-1a 10 ng/ml in bottom well, cells coincubated with agonist (MIP-3α 10 to 1000 ng/ml medium)): does increase the sensitivity
